A short description of this data set: Bulk density and tapped density comparison of atovaquone crystalline forms. The format is physicochemical. The following applies: powder of the crystalline form.

Each structure is given as a SMILES string.

On to `O=C1C(O)=C([C@H]2CC[C@H](c3ccc(Cl)cc3)CC2)C(=O)c2ccccc21` [Form I (ATO-8094P), trans-2-[4-(4-chlorophenyl)cyclohexyl]-3-hydroxy-1,4-naphthoquinone], for which the Bulk density stood at 0.4802 g/mL and the Tapped density is 0.6402 g/mL.
The like results for `O=C1C(O)=C([C@H]2CC[C@H](c3ccc(Cl)cc3)CC2)C(=O)c2ccccc21` [Form III (ATO-8110), trans-2-[4-(4-chlorophenyl)cyclohexyl]-3-hydroxy-1,4-naphthoquinone] were, in that order, 0.2975 g/mL and 0.4010 g/mL.
The like results for `O=C1C(O)=C([C@H]2CC[C@H](c3ccc(Cl)cc3)CC2)C(=O)c2ccccc21` [Form IPCA-ATO (ATO-8099), trans-2-[4-(4-chlorophenyl)cyclohexyl]-3-hydroxy-1,4-naphthoquinone] were, in that order, 0.2353 g/mL and 0.3801 g/mL.

For the origin of these results see US20090221715A1, “NOVEL POLYMORPH OF ATOVAQUONE” (priority 2008, published 2009).
